Results from BigSolDB 2.1.

COC(=O)Nc1nc2ccccc2[nH]1
solubility (mole fraction)
Conditions | 278.15 K | 283.15 K | 288.15 K | 293.15 K | 298.15 K | 303.15 K | 308.15 K | 313.15 K | 318.15 K | 323.15 K
in ethanol | 6.39e-06 | 1.05e-05 | 1.58e-05 | 2.3e-05 | 3.19e-05 | 4.34e-05 | 5.78e-05 | 7.66e-05 | 0.000101 | 0.000134
in methanol | 3.19e-05 | 4e-05 | 5.2e-05 | 6.33e-05 | 7.77e-05 | 9.85e-05 | 0.000118 | 0.000143 | 0.000173 | 0.000201
in n-butanol | 2.12e-06 | 3.75e-06 | 6.22e-06 | 9.84e-06 | 1.5e-05 | 2.28e-05 | 3.34e-05 | 5.07e-05 | 7.61e-05 | 0.000111
in n-pentanol | 1e-06 | 2e-06 | 3.62e-06 | 6.19e-06 | 1.05e-05 | 1.69e-05 | 2.87e-05 | 4.55e-05 | 6.8e-05 | 0.000101
in n-propanol | 3.3e-06 | 5.42e-06 | 8.66e-06 | 1.3e-05 | 1.89e-05 | 2.73e-05 | 3.92e-05 | 5.57e-05 | 8.38e-05 | 0.00012
